The values below come from ChEMBL document CHEMBL5291721, “A preclinical secondary pharmacology resource illuminates target-adverse drug reaction associations of marketed drugs” (Nat Commun, 2023).

One assay deals with D(3) dopamine receptor (Homo sapiens, UniProt P35462).
In assay [1] the target is Sodium-dependent noradrenaline transporter (Homo sapiens, UniProt P23975).
For assay [2], the target named is T1, Amine oxidase [flavin-containing] A (Homo sapiens, UniProt P21397).
T1 sequence (P21397 whole entry): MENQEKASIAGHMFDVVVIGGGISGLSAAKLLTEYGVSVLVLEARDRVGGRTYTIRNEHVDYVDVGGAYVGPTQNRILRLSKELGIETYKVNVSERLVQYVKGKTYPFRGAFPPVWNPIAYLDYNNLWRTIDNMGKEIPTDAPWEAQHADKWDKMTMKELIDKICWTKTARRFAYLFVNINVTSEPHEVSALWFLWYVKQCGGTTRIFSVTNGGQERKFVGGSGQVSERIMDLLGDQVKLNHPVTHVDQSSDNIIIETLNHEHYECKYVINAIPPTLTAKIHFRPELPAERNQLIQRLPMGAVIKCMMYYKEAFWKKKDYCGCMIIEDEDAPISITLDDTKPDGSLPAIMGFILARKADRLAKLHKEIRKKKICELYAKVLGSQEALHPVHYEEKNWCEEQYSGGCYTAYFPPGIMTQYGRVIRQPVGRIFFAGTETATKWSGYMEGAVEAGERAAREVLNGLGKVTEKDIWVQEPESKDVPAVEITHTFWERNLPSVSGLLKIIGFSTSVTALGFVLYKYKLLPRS
The assay is classed as functional.

Another assay addresses T2, B2 bradykinin receptor (Homo sapiens, UniProt P30411).
T2 sequence (P30411 whole entry): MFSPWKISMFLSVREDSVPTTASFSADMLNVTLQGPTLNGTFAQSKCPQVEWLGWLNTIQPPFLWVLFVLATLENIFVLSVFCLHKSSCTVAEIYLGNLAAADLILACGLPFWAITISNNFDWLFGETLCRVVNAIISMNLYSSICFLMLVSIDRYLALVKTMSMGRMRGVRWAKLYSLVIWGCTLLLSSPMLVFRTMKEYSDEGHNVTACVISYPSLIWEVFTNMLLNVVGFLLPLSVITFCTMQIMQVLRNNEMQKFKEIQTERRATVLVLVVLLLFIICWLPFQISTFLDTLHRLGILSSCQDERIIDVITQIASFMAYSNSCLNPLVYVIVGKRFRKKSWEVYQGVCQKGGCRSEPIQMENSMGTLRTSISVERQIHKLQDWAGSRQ

The next assay concerns the target T3, Adenosine receptor A3 (Homo sapiens, UniProt P0DMS8).
T3 sequence (P0DMS8 whole entry): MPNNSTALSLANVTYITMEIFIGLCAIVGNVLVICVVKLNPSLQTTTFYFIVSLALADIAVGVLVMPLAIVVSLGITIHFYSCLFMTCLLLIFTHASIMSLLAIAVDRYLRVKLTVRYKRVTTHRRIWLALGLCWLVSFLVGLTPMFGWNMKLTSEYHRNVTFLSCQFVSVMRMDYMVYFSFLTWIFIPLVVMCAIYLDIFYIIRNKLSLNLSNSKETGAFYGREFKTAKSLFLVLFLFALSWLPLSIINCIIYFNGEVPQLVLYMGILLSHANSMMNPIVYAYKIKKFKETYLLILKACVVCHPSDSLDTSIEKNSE

In another assay the target is T4, Estrogen receptor (Homo sapiens, UniProt P03372).
T4 sequence (P03372 whole entry): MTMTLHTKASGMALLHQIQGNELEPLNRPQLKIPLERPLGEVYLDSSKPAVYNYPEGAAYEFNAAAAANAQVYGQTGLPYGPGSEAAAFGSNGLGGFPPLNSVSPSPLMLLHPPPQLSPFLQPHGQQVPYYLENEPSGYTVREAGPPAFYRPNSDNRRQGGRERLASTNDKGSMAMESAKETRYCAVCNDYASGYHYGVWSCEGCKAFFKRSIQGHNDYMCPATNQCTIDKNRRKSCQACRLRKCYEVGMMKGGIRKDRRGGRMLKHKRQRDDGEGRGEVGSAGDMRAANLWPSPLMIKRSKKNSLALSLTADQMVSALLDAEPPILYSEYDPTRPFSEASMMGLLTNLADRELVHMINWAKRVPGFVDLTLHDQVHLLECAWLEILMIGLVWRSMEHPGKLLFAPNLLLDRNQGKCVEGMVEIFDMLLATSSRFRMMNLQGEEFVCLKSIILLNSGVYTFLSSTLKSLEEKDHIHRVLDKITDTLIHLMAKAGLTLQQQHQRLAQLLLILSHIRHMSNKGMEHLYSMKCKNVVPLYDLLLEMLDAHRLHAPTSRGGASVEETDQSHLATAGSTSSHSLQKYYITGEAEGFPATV

The structures appear in SMILES notation.
Further: assay procedure not described here.

Sodium-dependent noradrenaline transporter, sequence (P23975 whole entry): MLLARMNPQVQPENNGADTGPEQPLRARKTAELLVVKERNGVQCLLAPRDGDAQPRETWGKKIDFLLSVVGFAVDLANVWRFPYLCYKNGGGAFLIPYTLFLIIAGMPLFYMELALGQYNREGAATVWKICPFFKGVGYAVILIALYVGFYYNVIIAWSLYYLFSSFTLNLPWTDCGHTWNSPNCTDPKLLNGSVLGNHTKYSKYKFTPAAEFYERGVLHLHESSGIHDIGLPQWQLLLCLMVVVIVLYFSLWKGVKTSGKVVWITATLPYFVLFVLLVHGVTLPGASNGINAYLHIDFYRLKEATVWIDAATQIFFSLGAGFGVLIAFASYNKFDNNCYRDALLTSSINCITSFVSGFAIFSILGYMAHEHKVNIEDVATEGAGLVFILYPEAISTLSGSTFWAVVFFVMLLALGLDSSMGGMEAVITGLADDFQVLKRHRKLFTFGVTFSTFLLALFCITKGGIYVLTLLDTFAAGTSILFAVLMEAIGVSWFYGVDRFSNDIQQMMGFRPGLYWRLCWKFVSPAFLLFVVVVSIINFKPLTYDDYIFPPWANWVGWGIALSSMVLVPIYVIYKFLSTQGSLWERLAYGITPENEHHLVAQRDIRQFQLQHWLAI
D(3) dopamine receptor, sequence (P35462 whole entry): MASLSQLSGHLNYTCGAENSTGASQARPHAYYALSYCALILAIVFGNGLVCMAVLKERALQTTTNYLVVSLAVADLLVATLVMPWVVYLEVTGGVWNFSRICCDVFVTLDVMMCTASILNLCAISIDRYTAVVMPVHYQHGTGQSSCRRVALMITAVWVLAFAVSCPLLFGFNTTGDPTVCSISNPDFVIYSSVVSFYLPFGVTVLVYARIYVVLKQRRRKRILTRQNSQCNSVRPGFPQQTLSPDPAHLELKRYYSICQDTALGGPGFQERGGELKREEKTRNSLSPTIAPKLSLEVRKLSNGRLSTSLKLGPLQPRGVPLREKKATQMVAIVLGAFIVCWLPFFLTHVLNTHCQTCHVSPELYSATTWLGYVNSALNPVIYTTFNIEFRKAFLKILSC

As to `O=C(O)[C@@H](S)[C@@H](S)C(=O)O`, the AC50 (at D(3) dopamine receptor; in assay [1]; in assay [2]) was over 30 µM in each case.
As to `CCOC(=O)[C@H](CCc1ccccc1)N[C@@H](C)C(=O)N1Cc2ccccc2C[C@H]1C(=O)O`, the AC50 (at B2 bradykinin receptor; on D(3) dopamine receptor; in assay [1]; on Adenosine receptor A3; in assay [2]; at Estrogen receptor) was over 30 µM each time.
Compound `C=CC1=C(C(=O)O)N2C(=O)[C@@H](NC(=O)/C(=N\O)c3csc(N)n3)[C@H]2SC1` came in with an AC50 at B2 bradykinin receptor of over 30 µM.
At B2 bradykinin receptor, `O=C(O)COC(=O)Cc1ccccc1Nc1c(Cl)cccc1Cl` [ACECLOFENAC] showed an AC50 of over 30 µM.
At B2 bradykinin receptor, `CN(C)CCc1c[nH]c2ccc(CS(=O)(=O)N3CCCC3)cc12` [ALMOTRIPTAN] came in with an AC50 of over 30 µM.
As for `CC[N+](CC)(CCNC(=O)C(=O)NCC[N+](CC)(CC)Cc1ccccc1Cl)Cc1ccccc1Cl` [AMBENONIUM], the AC50 at B2 bradykinin receptor was over 30 µM.
In the case of `NCCCNCCSP(=O)(O)O` [AMIFOSTINE], the AC50 at B2 bradykinin receptor is over 30 µM.
Same read-out and setting: the same measure for `NCCCCCC(=O)O` [AMINOCAPROIC ACID]: over 10 µM.
On to `CN(C)CCC=C1c2ccccc2CCc2ccccc21` [AMITRIPTYLINE], for which the AC50 at B2 bradykinin receptor was over 30 µM; at D(3) dopamine receptor, 0.147 µM; on Adenosine receptor A3, over 30 µM; in assay [2], over 30 µM; on Estrogen receptor it was over 30 µM.
`CC(C)NCC(O)COc1ccc(CC(N)=O)cc1` (configuration not stated) [ATENOLOL]: at B2 bradykinin receptor, the AC50 is over 30 µM.
Turning to `CC(C)C[C@H](NC(=O)[C@H](Cc1ccccc1)NC(=O)c1cnccn1)B(O)O` [BORTEZOMIB], on B2 bradykinin receptor, the AC50 is over 30 µM.
At B2 bradykinin receptor, `C[C@H](CS)C(=O)N1CCC[C@H]1C(=O)O` [CAPTOPRIL] yielded an AC50 of over 30 µM.
In the case of `CN(C)CCOC(c1ccc(Cl)cc1)c1ccccn1` (configuration not stated) [CARBINOXAMINE], at B2 bradykinin receptor, the half-maximal activity concentration (AC50) was over 30 µM.
As to `CCN(CC)CCn1c(=O)c(Cc2ccc(OC)cc2)nc2ccccc21` [CAROVERINE], on B2 bradykinin receptor, the AC50 was over 30 µM.
Take `NC(=O)C1(N2CCCCC2)CCN(CCCN2c3ccccc3CCc3ccccc32)CC1` [CARPIPRAMINE]: the AC50 was 0.0207 µM at D(3) dopamine receptor; 11.7 µM in assay [1]; over 30 µM at Adenosine receptor A3; over 30 µM in assay [2]; over 30 µM at Estrogen receptor.
Consider `O=C(Cc1cccs1)N[C@@H]1C(=O)N2C(C(=O)[O-])=C(C[n+]3ccccc3)CS[C@H]12` [CEPHALORIDINE], for which the AC50 (on D(3) dopamine receptor; in assay [1]; in assay [2]; on Estrogen receptor) was over 30 µM each time.
`CN(C)CCCC1(c2ccc(F)cc2)OCc2cc(C#N)ccc21` (configuration not stated) [CITALOPRAM]: the AC50 (on B2 bradykinin receptor; at Adenosine receptor A3; in assay [2]; on Estrogen receptor) was over 30 µM throughout.
In the case of `CC(C)/N=c1\cc2n(-c3ccc(Cl)cc3)c3ccccc3nc-2cc1Nc1ccc(Cl)cc1` [CLOFAZIMINE], the AC50 on B2 bradykinin receptor was over 30 µM.
Take `O=P1(N(CCCl)CCCl)NCCCO1` (configuration not stated) [CYCLOPHOSPHAMIDE ANHYDROUS]: the AC50 (at D(3) dopamine receptor; in assay [1]; at Adenosine receptor A3; in assay [2]; at Estrogen receptor) was over 30 µM throughout.
As for `C[C@H](Nc1ncnc2[nH]cnc12)c1cc2cccc(Cl)c2c(=O)n1-c1ccccc1` [DUVELISIB], the half-maximal activity concentration (AC50) (at D(3) dopamine receptor; in assay [1]; in assay [2]; at Estrogen receptor) was over 30 µM each time.
`COC(=O)CCc1ccc(OCC(O)CNC(C)C)cc1` (configuration not stated) [ESMOLOL]: the AC50 on B2 bradykinin receptor is over 30 µM.
Consider `O=c1[nH]c2ccccc2n1CCN1CCN(c2cccc(C(F)(F)F)c2)CC1` [FLIBANSERIN], for which the AC50 on D(3) dopamine receptor was 0.286 µM; in assay [1] it was over 30 µM; on Adenosine receptor A3, 15.6 µM; in assay [2], over 30 µM; on Estrogen receptor, over 30 µM.
For `C[C@]12CCC(=O)C=C1CC[C@H]1[C@@H]3CC[C@](O)(C(=O)CO)[C@@]3(C)C[C@H](O)[C@@]12F` [FLUDROCORTISONE], on B2 bradykinin receptor, the AC50 was over 30 µM.
In the case of `O=c1[nH]cc(F)c(=O)[nH]1` [FLUOROURACIL], the concentration at half-maximal activity (AC50) (on B2 bradykinin receptor; at D(3) dopamine receptor; in assay [1]; in assay [2]) was over 30 µM in each case.
`CCOC(=O)Nc1ccc(NCc2ccc(F)cc2)nc1N` [FLUPIRTINE] showed an AC50 at B2 bradykinin receptor of over 30 µM.
In the case of `NCC1(CC(=O)O)CCCCC1` [GABAPENTIN], the AC50 (at B2 bradykinin receptor; at D(3) dopamine receptor; in assay [1]; at Adenosine receptor A3; in assay [2]) was over 30 µM in each case.
As for `CCN(CCO)CCCC(C)Nc1ccnc2cc(Cl)ccc12` (configuration not stated) [HYDROXYCHLOROQUINE], the half-maximal activity concentration (AC50) at B2 bradykinin receptor is over 10 µM.
`OCCOCCN1CCN(C(c2ccccc2)c2ccc(Cl)cc2)CC1` (configuration not stated) [HYDROXYZINE]: the AC50 at B2 bradykinin receptor is over 30 µM.
For `CNC1(c2ccccc2Cl)CCCCC1=O` (configuration not stated) [KETAMINE], the AC50 (on D(3) dopamine receptor; in assay [1]; at Adenosine receptor A3; in assay [2]; on Estrogen receptor) was over 30 µM throughout.
`O=C(c1ccccc1)c1ccc2n1CCC2C(=O)O` (configuration not stated) [KETOROLAC]: the AC50 on B2 bradykinin receptor is over 10 µM.
Take `Nc1nnc(-c2cccc(Cl)c2Cl)c(N)n1` [LAMOTRIGINE]: the AC50 on B2 bradykinin receptor is over 30 µM.
On to `N[C@@H](Cc1cc(I)c(Oc2cc(I)c(O)c(I)c2)c(I)c1)C(=O)O` [LEVOTHYROXINE], for which the AC50 at B2 bradykinin receptor was over 10 µM.
Consider `CC(=O)NC[C@H]1CN(c2ccc(N3CCOCC3)c(F)c2)C(=O)O1` [LINEZOLID], for which the AC50 on B2 bradykinin receptor was over 30 µM.
Take `O=NN(CCCl)C(=O)NC1CCCCC1` [LOMUSTINE]: the AC50 (on D(3) dopamine receptor; in assay [1]; at Adenosine receptor A3; in assay [2]) was over 30 µM throughout.
Regarding `O=C1[C@@H]2[C@H]3CC[C@H](C3)[C@@H]2C(=O)N1C[C@@H]1CCCC[C@H]1CN1CCN(c2nsc3ccccc23)CC1` [LURASIDONE], the AC50 at D(3) dopamine receptor was 0.0042 µM; in assay [1], 24.1 µM; on Adenosine receptor A3, 6.36 µM; in assay [2], over 30 µM; on Estrogen receptor it was over 30 µM.
Regarding `CNC1(C)C2CCC(C2)C1(C)C` (configuration not stated) [MECAMYLAMINE], the half-maximal activity concentration (AC50) on B2 bradykinin receptor is over 10 µM.
As to `CS(=O)(=O)Nc1ccc([N+](=O)[O-])cc1Oc1ccccc1` [NIMESULIDE], the concentration at half-maximal activity (AC50) was 20 µM at B2 bradykinin receptor, over 30 µM at D(3) dopamine receptor, over 30 µM in assay [1] and over 30 µM in assay [2].
Regarding `C#CCN(C)Cc1ccccc1` [PARGYLINE], the AC50 (at D(3) dopamine receptor; in assay [1]; at Estrogen receptor) was over 30 µM in each case.
On B2 bradykinin receptor, `CCC1(c2ccccc2)C(=O)NCNC1=O` [PRIMIDONE] gave an AC50 of over 10 µM.
The compound `CC(=O)SCC(Cc1ccccc1)C(=O)NCC(=O)OCc1ccccc1` (configuration not stated) [RACECADOTRIL] had an AC50 at B2 bradykinin receptor of over 30 µM.
Still for that read-out and setting: as for `CCOc1ccccc1OCCN[C@H](C)Cc1ccc(OC)c(S(N)(=O)=O)c1` [TAMSULOSIN], the figure is over 30 µM; as for `C[C@H](Cn1cnc2c(N)ncnc21)OCP(=O)(O)O` [TENOFOVIR ANHYDROUS], over 30 µM.
